How the values were obtained:
Assay type in all cases: cell-based
E. coli O18:K1:H7 [1] = assay: Bacterial killing assay in serum or plasma (complement dependence); conditions: FIG. 8D; peptides serially diluted to 300 nM, and 30 nM in serum
E. coli O18:K1:H7 [2] = assay: Bacterial killing assay in 10% blood; parameters: CFU / CFU (Range) / CFU 1 hour / CFU 3 hours / CFU 5 hours / CFU 3 hour: scale not given here; conditions: for activity against O18ac:K1:H7 E. coli strain in blood / CFU / CFU 1 hour / CFU 3 hours / CFU 5 hours / bacterial killing activity (effect on bacterial growth): 10% blood; for activity against O18ac:K1:H7 E. coli strain in blood: concentrations tested 10 nM to 3 μM, peptide #5 compared to peptide #3; for bacterial survival (outgrowth of bacterial colonies): FIG. 11d, E. coli O18ac:K1:H7 in diluted whole blood; for CFU 1 hour / CFU 3 hours / CFU 5 hours: Table 5, 3000 CFU; for CFU 1 hour: blood 3.4; for CFU 3 hours: blood 4.2; for CFU 5 hours: blood 5.1; for bacterial killing activity (effect on bacterial growth): FIGS. 1 and 2, TFPI 5 μM, cathepsin G 400 nM
Description: TFPI was incubated with α-thrombin, plasmin, elastase and cathepsin G in 10% blood and tested for bacterial killing activity against E. coli O18:K1:H7 as follows. Recombinant TFPI at 5 μM (unless indicated otherwise), was treated with plasmin (100 nM, lane 3) and α-thrombin (100 nM, lane 7; 1 μM, lane 8) (A), elastase (100 nM, lanes 3 and 4) (B), and cathepsin G (100 nM, lane 4; 1 μM, lanes 5, 6 and 7) (C) in a total volume of 180 μl. The reaction contained TFPI diluted in RPMI 1640 without phenol red, 25 mM Hepes, pH 7.5 (RPMI), 3000 CFU E. coli O18:K1:H7 in 40 μl PBS, and diluted enzyme in 20 μl RPMI. The volume was adjusted with RPMI. The samples were pre-incubated for 15-30 minutes before the addition of anti-coagulant-free fresh blood to a final volume of 200 μl. Controls were 10% blood in RPMI, TFPI at 1, 2 and 5 μM, and the enzymes alone at the respective concentrations. The samples were incubated for 4 hours at 37° C. with 5% CO2 in a humidified incubator and serial dilutions plated on Tryptase soy agar plates. The number of bacterial colonies was determined after overnight incubation at 37° C. All experimental conditions are run in duplicate. The data represent the average colony number.
The 18 μl aliquots were diluted to 10 μM TFPI with 445 μl RPMI 1640 without phenolred, 25 mM Hepes, pH 7.5 (RPMI) and assayed at a final concentration of 5 μM in 200 μl reactions containing 3000 CFU E. coli in 40 μl PBS, 10% non-coagulated blood, and adjusted to the final volume with RPMI. Negative controls were 10% blood in RPMI, TFPI at 5 μM and cathepsin G at 400 nM. Anti-coagulant free blood was freshly drawn and added to the reaction as the last component. The samples were manipulated as described above.
Peptides were designed to test for bacterial killing activity localized in the C-terminal domain of TFPI. Activity was measured against Gram negative (E coli O18:K1:H7. ATCC 700973) bacteria in the presence of 10% blood as described above. Controls were RPMI with 10% blood and 100 nM Tifacogin. The biological activity was determined from the reduction of bacterial colonies, as above.
The three peptides #1, #2, & #3 were diluted in H2O to 10 fold their final assay concentration and incubated with bacteria for 4 hours, at the final concentrations of 3 μM, 300 nM 100 nM and 10 nM. E. coli was used at 3000 CFU/200 μl. Surviving colony numbers were determined as described in Example 1. […] Full-length TFPI has no activity against Gram negative bacteria in these assays at the concentrations tested.
Time-dependency: Peptides were incubated with 3000 CFU E. coli O18:K1:H7 at the indicated final concentrations in the presence of 10% blood in three parallel 200 μl reactions as described above. RPMI with 10% blood was used as negative control. After incubation for 1, 3, or 5 hours samples were assayed for the effect on bacterial survival by plating serial dilutions onto agar plates. […] The effect of peptides on bacterial survival increases over the time-span studied.
In these experiments, variable concentrations of E. coli O18:K1:H7 (3×10^3, 3×10^4 or 3×10^5 CFU/200 μl) were challenged with either 3 μM or 100 nM peptide #3 in RPMI/10% blood, and incubated for 3 or 5 hours before dilution and plating. Briefly, the bacteria were diluted to the indicated CFU in 40 μl PBS, the reactions assembled at a final volume of 200 μl as above, and incubated at 37° C. Serial dilutions of the reactions were plated and the colony number determined after overnight incubation. […] At 5 hours no effect on the high CFU culture was discernable, indicating a titration of the killing activity and the high CFU culture exceeding the capacity.

IL-6 secretion = assay: IL-6 induction assay in diluted whole blood in the presence of LPS; conditions: FIG. 11c; peptide and LPS dose-dependent
Description: The ability of TFPI to induce IL-6 secretion in the presence of LPS was tested using TFPI and TFPI analogs, including: (i) TFPI1-161, having just residues 1-161 of TFPI; (ii) TFPI with mutant K1; (iii) TFPI with mutant K2; (iv) TFPI with mutants K1 and K2.
When diluted, freshly drawn whole blood is incubated with LPS derived from the cell wall of Gram-negative bacteria, a cytokine cascade is induced within a few hours.
A peptide consisting of the 22 C-terminal amino acids of TFPI (i.e. SEQ ID NO:3) was tested in an IL-6 assay in the presence of LPS. […] Thus this peptide appears to be able to neutralize the endotoxin activity of LPS.

E. coli O18:K1:H7 [3] = assay: Bacterial killing assay without blood (growth medium); conditions: no blood; for CFU (Range): Table 4, growth medium 6.2
Description: Peptides #1, #3 and #4 were tested for their activity without blood on E. coli O18:K1:H7. The peptides were assayed at 3 μM. The same blood and TFPI controls were included as in Experiment I.

[4] = Table 1, peptide 300 nM, 3000 CFU/200 μl, 4 hours, blood control 5.1
[5] = Table 1, peptide 3 μM, 3000 CFU/200 μl, 4 hours, blood control 5.1
[6] = Table 4, in blood, peptide 3 μM, blood control 5.1

TKRKRKKQRVKIAYEEIFVKNM (homo sapiens) [Peptide #1, TFPI aas 255-276, the 22 C-terminal amino acids of TFPI]
bacterial killing activity in serum (rank) (E. coli O18:K1:H7 [1]): greatly reduced activity
activity against O18ac:K1:H7 E. coli strain in blood (E. coli O18:K1:H7 [2]; 4 hours): active
bacterial survival (outgrowth of bacterial colonies) (E. coli O18:K1:H7 [2]; 300 nM of peptide): killed all bacteria
bacterial survival (outgrowth of bacterial colonies) (E. coli O18:K1:H7 [2]): dose-dependently reduced bacterial survival
CFU (E. coli O18:K1:H7 [2]; [4]): 5.2
CFU (E. coli O18:K1:H7 [2]; [5]): 1.1
CFU (Range) (E. coli O18:K1:H7 [2]; [6]): 1.1 (0.4-1.2)
CFU 1 hour (E. coli O18:K1:H7 [2]; 300 nM): 3.4
CFU 3 hours (E. coli O18:K1:H7 [2]; 300 nM): 4.2
CFU 5 hours (E. coli O18:K1:H7 [2]; 300 nM): 4.2
CFU 1 hour (E. coli O18:K1:H7 [2]; 3 μM): 3.4
CFU 3 hours (E. coli O18:K1:H7 [2]; 3 μM): 1.2
CFU 5 hours (E. coli O18:K1:H7 [2]; 3 μM): 0.2
CFU (Range) (E. coli O18:K1:H7 [2]; Table 9, peptide 3 μm, Heparin, 3 U/mL): 5.5
CFU (Range) (E. coli O18:K1:H7 [2]; Table 9, peptide 3 μm, LMW heparin, 0.3 U/mL): 4.7 (4.5-5.1)
CFU (Range) (E. coli O18:K1:H7 [2]; Table 9, peptide 3 μm, LMW heparin, 3 U/mL): 5.3
CFU (Range) (E. coli O18:K1:H7 [2]; Table 9, peptide 3 μm, no heparin, blood alone 4.9): 1.2 (N.D.-1.4)
bacterial killing activity with un-fractionated heparin (E. coli O18:K1:H7 [2]; peptide 3 μm, un-fractionated heparin at 0.3 U/ml, data not shown): partial loss of bacterial killing activity
effect of LPS on cytokine production (IL-6) (IL-6 secretion): completely reversed the effect of LPS on cytokine production
CFU (Range) (E. coli O18:K1:H7 [3]; peptide 3 μM): 5.6

TFPI: all exogenous TFPI in the examples is the TFPI analog ala-TFPI (SEQ ID NO:2), tifacogin
activity against O18ac:K1:H7 E. coli strain in blood (E. coli O18:K1:H7 [2]; 4 hours): no activity
bacterial killing activity (effect on bacterial growth) (E. coli O18:K1:H7 [2]): did not exhibit a similar activity
CFU (E. coli O18:K1:H7 [2]; Table 1, TFPI control (100 nM Tifacogin), 3000 CFU/200 μl, 4 hours, blood control 5.1): 5.2
CFU (Range) (E. coli O18:K1:H7 [2]; Table 4, in blood, TFPI control): 5.2
CFU (Range) (E. coli O18:K1:H7 [3]; TFPI control): 6.2

NFQRKEKREVIYKVKTKIKAMR (homo sapiens) [Peptide #2, scrambled control peptide, aas 255-276 scramble, reference compound]
bacterial killing activity in serum (rank) (E. coli O18:K1:H7 [1]): inactive
CFU (E. coli O18:K1:H7 [2]; [4]): 5.3
CFU (E. coli O18:K1:H7 [2]; [5]): 5.4
CFU 1 hour (E. coli O18:K1:H7 [2]; 3 μM): 3.4
CFU 3 hours (E. coli O18:K1:H7 [2]; 3 μM): 4.3
CFU 5 hours (E. coli O18:K1:H7 [2]; 3 μM): 5.2

Heparin [reference compound]
CFU (Range) (E. coli O18:K1:H7 [2]; Table 9, blood alone control with Heparin, 3 U/mL, no peptide): 5.4 (5.3-5.4)

GFIQRISKGGLIKTKRKRKKQRVKIAYEEIFVKNM (homo sapiens) [Peptide #5, TFPI aas 242-276]
activity against O18ac:K1:H7 E. coli strain in blood (E. coli O18:K1:H7 [2]; 4 hours): similar, but slightly reduced
CFU (E. coli O18:K1:H7 [2]; Table 2, peptide 10 nM, blood control 3.5): 4.1
CFU (E. coli O18:K1:H7 [2]; Table 2, peptide 100 nM, blood control 3.5): 2.1

LLGDFFRKSKEKIGKEFKRIVQRIKDFLRNLVPRTES [Peptide #4, reference compound]
CFU (E. coli O18:K1:H7 [2]; [4]): 4.9
CFU (E. coli O18:K1:H7 [2]; [5]): 1.3
CFU (Range) (E. coli O18:K1:H7 [2]; [6]): 1.3 (1.3-1.4)
CFU 1 hour (E. coli O18:K1:H7 [2]; 300 nM): 3.3
CFU 3 hours (E. coli O18:K1:H7 [2]; 300 nM): 3.9
CFU 5 hours (E. coli O18:K1:H7 [2]; 300 nM): 3.1
CFU 1 hour (E. coli O18:K1:H7 [2]; 3 μM): 3.1
CFU 3 hours (E. coli O18:K1:H7 [2]; 3 μM): 3.4
CFU 5 hours (E. coli O18:K1:H7 [2]; 3 μM): 1.2
inhibition of bacteria in the absence of blood (E. coli O18:K1:H7 [3]; 3000 nM): full inhibition of bacteria

B1: Cathepsin G: protease used to digest TFPI, tested alone as negative control at 400 nM (protein, UniProt P08311 21-244, looked up)
Cathepsin G: IIGGRESRPHSRPYMAYLQIQSPAGQSRCGGFLVREDFVLTAAHCWGSNINVTLGAHNIQRRENTQQHITARRAIRHPQYNQRTIQNDIMLLQLSRRVRRNRNVNPVALPRAQEGLRPGTLCTVAGWGRVSMRRGTDTLREVQLRVQRDRQCLRIFGSYDPRRQICVGDRRERKAAFKGDSGGPLLCNNVAHGIVSYGKSSGVPPEVFTRVSSFLPWIRTTMRS
bacterial killing activity (effect on bacterial growth) (E. coli O18:K1:H7 [2]): did not exhibit a similar activity
